This passage reports Ratio results from ChEMBL document CHEMBL1275330, “Rational design, synthesis, and evaluation of new selective inhibitors of microbial class II (zinc dependent) fructose bis-phosphate aldolases” (J Med Chem, 2010).

What all share (type): tissue-based
Conditions in all cases: Muscle tissue

A short description of assay [1]: Selectivity ratio of Km/ki for rabbit muscle […] Fba to Km/ki for Helicobacter pylori recombinant zinc dependent class 2 Fba.
Assay [2] is described as follows: Selectivity ratio of Km/ki for rabbit muscle […] Fba to Km/ki for Mycobacterium tuberculosis zinc dependent class 2 Fba.
A short description of assay [3]: Selectivity ratio of Km/ki for rabbit muscle […] Fba to Km/ki for Candida albicans zinc dependent class 2 Fba.

On to `CCCCCCCCCCCC(=O)OCCCCN(O)C(=O)COP(=O)(O)O`, for which the Ratio was 19 in assay [1], 305 in assay [2] and 475 in assay [3].

Regarding `O=C(COP(=O)(O)O)N(O)CCCOP(=O)(O)O`, the Ratio in assay [1] came out at 23000; in assay [2], 28000; in assay [3] it was 7500.

Turning to `O=C(COP(=O)(O)O)N(O)CCCO`, the figures for the Ratio in assay [1], in assay [2] and in assay [3] were 600, 20000 and 34000, respectively.
